From PMC8346139, “Synthesis of New Tricyclic 1,2-Thiazine Derivatives with Anti-Inflammatory Activity” (International Journal of Molecular Sciences, 2021)
pIC50: −log10 of the molar value. “Also recorded” adds a separate entry of the source.

Experiments:
[1] = tested on: NHDF cells; assay: MTT viability assay; format: cell-based, Human; conditions: 24 h incubation; for Mitochondrial activity of NHDF cells: 10 µM and 50 µM, compared to control; for Mitochondrial activity of NHDF cells / Cytotoxic effect on NHDF cells: MTT; for Cytotoxic effect on NHDF cells: 10, 50 and 100 µM
Procedure: The viability of the Normal Human Dermal Fibroblasts (NHDF) cells was assessed after 24 h incubation with 10, 50 and 100 µM tested compounds in MTT assay. […] The less than 30% decrease in culture viability was observed only in concentration of 100 µM for compound 6b in comparison to control (i.e., no cytotoxic potential of tested compound). […] Thus, all new compounds were directed to further research.
The study was carried out using the NHDF cell line obtained from ATCC (Manassas, VA, USA). These cells are commonly used to determine the cytotoxicity of new compounds. Cells were cultured at 37 °C in a humidified 5% CO2/95% air atmosphere incubator and passaged twice a week.
(§1) The 1,2-thiazine derivatives were dissolved in DMSO to a stock concentration of 10 mM. All prepared stock solutions were stored at −20 °C for up to 6 months. For the experiment, the compounds tested were used in the concentration range of 10, 50 and 100 μM. […] The abovementioned tested compounds were tested on NHDF cells.
The viability of the cells was assessed after 24 h incubation with 10–100 µM tested compounds in MTT assay. After incubation, cell culture with a 1 mg/mL solution of MTT for 2 h at 37 °C, the formazan crystals were dissolved in isopropanol. The plates were then shaken for 30 min, and the absorbance was measured at 570 nm using VariuScan microplate reader.

[2] = tested on: NHDF cells; assay: DCF-DA assay of reactive oxygen species (ROS); format: cell-based, Human; conditions: 1 h treatment; 10, 50 and 100 µM; compared to control
Procedure: The level of reactive oxygen species (ROS) was evaluated in DCF-DA assay and nitric oxide (NO) in Griess assay, on NHDF cells. […] This increase may be due to the normal cellular activity due to the increased cell numbers, probably resulting from proliferation.
as §1
Levels of reactive oxygen species (ROS) and nitric oxide (NO) were evaluated in DCF-DA (2′,7′-dichlorofluorescein diacetate) and Griess (cat. No. G7921; Thermo Fisher Scientific, Waltham, MA, USA) assays, respectively. In these assays, the cells were treated with tested compounds only for 1 h. After that time, the 50 µL of supernatant were transferred into new plates to assess the NO level. The remaining supernatant was removed, the cell culture was washed, and the 25 µM DCF-DA solution was added for 1 h at 37 °C. […] The plates with DCF-DA solution were analyzed with the Varioskan LUX microplate reader (λex = 485 nm and λem = 535 nm). The NO level was analyzed by the measurement of the absorbance at 548 nm using VariuScan microplate reader.

[3] = biological target: T1, ovine COX-1 (Ovis aries, UniProt P05979); assay: COX colorimetric inhibitor screening assay, COX-1
T1 sequence (P05979 25-600): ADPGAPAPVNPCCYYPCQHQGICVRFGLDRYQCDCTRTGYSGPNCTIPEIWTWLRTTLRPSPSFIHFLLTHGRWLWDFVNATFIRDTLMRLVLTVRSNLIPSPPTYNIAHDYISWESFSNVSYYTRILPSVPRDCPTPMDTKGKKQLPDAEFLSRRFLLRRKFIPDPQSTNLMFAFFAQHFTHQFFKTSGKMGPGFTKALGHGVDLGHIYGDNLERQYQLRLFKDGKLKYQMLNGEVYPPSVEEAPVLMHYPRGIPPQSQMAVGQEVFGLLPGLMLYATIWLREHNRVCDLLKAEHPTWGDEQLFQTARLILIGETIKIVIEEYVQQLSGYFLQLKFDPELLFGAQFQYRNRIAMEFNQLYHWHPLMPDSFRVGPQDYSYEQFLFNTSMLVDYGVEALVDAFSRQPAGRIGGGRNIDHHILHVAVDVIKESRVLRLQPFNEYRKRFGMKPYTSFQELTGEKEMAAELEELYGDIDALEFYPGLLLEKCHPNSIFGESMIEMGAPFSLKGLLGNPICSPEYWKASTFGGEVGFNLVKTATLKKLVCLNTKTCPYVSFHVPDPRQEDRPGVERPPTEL
Procedure: (§2) The selectivity of the compounds for COX-1 or COX-2 was assessed by calculation of the IC50 ratios.
(§3) The compounds were dissolved in ethanol to get the final concentration of 100 µM. Each tested solution of compounds was transferred into a 96-well plate in three repetitions and then incubated for 2 min at RT with prepared reagents according to the manufacturing procedure. This assay measured the peroxidase component of COXs, which is evaluated as monitoring the oxidized form of N, N, N’, N’-tetramethyl-p-phenylenediamine (TMPD). The absorbance was measured using a VariuScan microplate reader at 590 nm. The data were calculated according to 3 steps. First, the average absorbance of all the samples was determined. Second, the absorbance of the background wells was subtracted from the absorbance of 100% of the starting COX-1 and COX-2 activity and the test compound wells.

[4] = biological target: T2, human recombinant COX-2 (Homo sapiens, UniProt P35354); assay: COX colorimetric inhibitor screening assay, COX-2; conditions: for COX-2/COX-1 selectivity compared with meloxicam: comparison of IC50 ratios; for COX-2 inhibition effect compared with meloxicam: comparison of IC50 values; for Ratio: COX-2/COX-1: ratio of IC50 values COX-2/COX-1
T2 sequence (P35354 18-604): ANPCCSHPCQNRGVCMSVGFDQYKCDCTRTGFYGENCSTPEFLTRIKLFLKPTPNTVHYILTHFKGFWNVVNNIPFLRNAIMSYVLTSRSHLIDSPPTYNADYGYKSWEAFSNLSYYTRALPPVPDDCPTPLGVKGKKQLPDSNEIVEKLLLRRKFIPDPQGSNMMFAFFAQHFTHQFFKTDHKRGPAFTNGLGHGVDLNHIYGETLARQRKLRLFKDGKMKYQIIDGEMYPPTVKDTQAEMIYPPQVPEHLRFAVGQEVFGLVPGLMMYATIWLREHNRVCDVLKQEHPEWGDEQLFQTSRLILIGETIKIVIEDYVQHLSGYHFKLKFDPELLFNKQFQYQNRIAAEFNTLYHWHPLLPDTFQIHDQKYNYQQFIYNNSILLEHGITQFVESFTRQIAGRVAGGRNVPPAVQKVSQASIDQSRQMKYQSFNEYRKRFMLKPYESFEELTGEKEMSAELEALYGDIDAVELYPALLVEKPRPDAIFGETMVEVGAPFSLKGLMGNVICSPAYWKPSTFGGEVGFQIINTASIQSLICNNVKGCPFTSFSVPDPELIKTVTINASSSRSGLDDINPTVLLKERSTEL
Procedure: as §2, §3

[5] = Differential scanning calorimetry (DSC) of DPPC model membranes; format: physicochemical; conditions: pH 7.4, molar ratios 0.06–0.12
Excerpt: To investigate the interaction of the tricyclic 1,2-thiazine derivatives (Table 1) with model membranes, we used the differential scanning calorimetry (DSC) method. As a model of the phospholipid membrane, the multibilayers made of 1,2-dipalmitoyl-n-glycero-3-phosphatidylcholine (DPPC) in a buffer solution (pH 7.4) were used.
Tris-EDTA buffer solution (pH 7.4) and 1,2-dipalmitoyl-n-glycero-3-phosphatidyl- choline (DPPC) were purchased from Sigma-Aldrich, Merck KGaA, Darmstadt, Germany. None of the compounds studied were soluble in water, so their chloroform (P.P.H. STANLAB, Lublin, Poland, analytical grade) solutions were used for calorimetric experiments.
For each sample, 2 mg of phospholipid (DPPC) were dissolved in the appropriate amount of chloroform stock solution (5 mM) of the compounds studied (the compound: DPPC molar ratios in the samples were: 0.06, 0.08, 0.10, 0.12). The solvent was then evaporated under a stream of nitrogen gas. After that, the residual solvent was evacuated under vacuum (Rotary evaporator, Büchy Poland, Warsaw, Poland) for 2 h. In this process, the phospholipid was transferred onto the dry film on the inner surface of the Eppendorf tube. Samples were hydrated by 20 μL of Tris–EDTA buffer (pH 7.4). […] Then, the samples were transferred into aluminum sample pans of the Concavus® type (Netzsch GmbH & Co., Selb, Germany) and sealed. A pan of the same type, filled with 20 μL of Tris–EDTA buffer (pH 7.4), was employed as a reference. Measurements of the DPPC main phase transition were performed using the heat-flow measurement method at a heating rate of 1 °C per minute over a temperature range of 30–50 °C in a nitrogen dynamic atmosphere (25 mL/min). Data were analyzed off-line using Netzsch Proteus® 7.1.0 (Netzsch GmbH & Co., Selb, Germany) analysis software. The transition enthalpies were stated in [J/g]. The measured heat was normalized per gram of lipid. […] All samples were weighed on a Sartorius CPA225D-0CE analytical balance (Sartorius AG, Gottingen, Germany) with a resolution of 0.01 mg.

Row | SMILES | Mitochondrial activity of NHDF cells [1] | Cytotoxic effect on NHDF cells [1] | Level of reactive oxygen species (ROS) [2] | pIC50 [3] | pIC50 [4] | COX-2/COX-1 selectivity compared with meloxicam [4] | COX-2 inhibition effect compared with meloxicam [4] | Ratio: COX-2/COX-1 [4] | melting point [°C] | Decrease in culture viability ([1]; 100 µM, in comparison to control) | Effect on DPPC gel-liquid crystalline phase transition parameters (Tm, T½, ΔH) [5]
1 | O=C(C1=C(O)c2ccccc2S(=O)(=O)N1)c1ccccc1 [Compound 4a] | statistically significant increase | no cytotoxic effect was observed | statistically significant increase | 4.04 | 4.26 | higher COX-2/COX-1 selectivity than for meloxicam | stronger COX-2 inhibition effect than the meloxicam | 0.6 | – | – | –
2 | O=C(C1=C(O)c2ccccc2S(=O)(=O)N1)c1ccc(Cl)cc1 [Compound 4c] | statistically significant increase | no cytotoxic effect was observed | – | 4.05 | 4.25 | higher COX-2/COX-1 selectivity than for meloxicam | stronger COX-2 inhibition effect than the meloxicam | 0.63 | – | – | –
3 | Cc1ccc(C(=O)C2=C(O)c3ccccc3S(=O)(=O)N2)cc1 [Compound 4d] | – | – | – | 4.05 | 4.26 | higher COX-2/COX-1 selectivity than for meloxicam | stronger COX-2 inhibition effect than the meloxicam | 0.62 | – | – | –
4 | O=C1C2=C(c3ccccc3)OCCN2S(=O)(=O)c2ccccc21 [Compound 5, 6,6-dioxo-1-phenyl-3,4-dihydro-[1,4] oxazino [4,3-b][1,2]benzothiazin-11-one] | – | – | – | 4.18 | 4.24 | – | stronger COX-2 inhibition effect than the meloxicam | 0.86 | 182 to 183 | – | –
5 | O=C1C2=C(c3ccccc3)OCCCN2S(=O)(=O)c2ccccc21 [Compound 6a, 7,7-dioxo-1-phenyl-4,5-dihydro-3H-[1,4]oxazepino[4,3-b][1,2]benzothiazin-12-one] | – | – | – | 3.98 | 4.05 | – | – | 0.85 | 171 to 172 | – | –
6 | O=C1C2=C(c3ccc(Br)cc3)OCCCN2S(=O)(=O)c2ccccc21 [Compound 6b, 1-(4-bromophenyl)-7,7-dioxo-4,5-dihydro-3H-[1,4]oxazepino[4,3-b][1,2]benzothiazin-12-one] | – | – | – | 4.06 | 4.02 | – | – | – | – | less than 30% | –
7 | O=C1C2=C(c3ccc(Cl)cc3)OCCCN2S(=O)(=O)c2ccccc21 [Compound 6c, 1-(4-chlorophenyl)-7,7-dioxo-4,5-dihydro-3H-[1,4]oxazepino[4,3-b][1,2]benzothiazin-12-one] | statistically significant increase | – | – | 4.05 | 4.03 | – | – | 1.05 | 168 to 170 | – | most pronounced effects
8 | Cc1ccc(C2=C3C(=O)c4ccccc4S(=O)(=O)N3CCCO2)cc1 [Compound 6d, 7,7-dioxo-1-(p-tolyl)-4,5-dihydro-3H-[1,4]oxazepino[4,3-b][1,2]benzothiazin-12-one] | – | – | – | 3.90 | 4.03 | – | – | 0.74 | 204 to 206 | – | most pronounced effects
9 | COc1ccc(C2=C3C(=O)c4ccccc4S(=O)(=O)N3CCCO2)cc1 [Compound 6e, 1-(4-methoxyphenyl)-7,7-dioxo-4,5-dihydro-3H-[1,4]oxazepino[4,3-b][1,2]benzothiazin-12-one] | – | – | – | 3.94 | 4.24 | higher COX-2/COX-1 selectivity than for meloxicam; also recorded: most selective inhibitor of COX-2 | stronger COX-2 inhibition effect than the meloxicam | 0.49 | 144 to 145 | – | most pronounced effects
10 | O=C1C2=C(c3ccccc3)OCCCCN2S(=O)(=O)c2ccccc21 [Compound 7, 8,8-dioxo-1-phenyl-3,4,5,6-tetrahydro-[1,4]oxazocino[4,3-b][1,2]benzothiazin-13-one] | – | – | – | 4.06 | 4.27 | higher COX-2/COX-1 selectivity than for meloxicam | stronger COX-2 inhibition effect than the meloxicam | 0.63 | 198 to 201 | – | –
